Results from patent publication US12595253B2, “Benzamides of pyrazolylamino-pyrimidinyl derivatives, and compositions and methods thereof” (LYNK PHARMACEUTICALS CO. LTD., priority 2019, dated 2026).
Where two headings read alike, the source gives them in different places.

Tests used:
Format in all cases: biochemical
TYK2 = target: T1, TYK2 (Homo sapiens, UniProt P29597); test: TYK2 microfluidic kinase assay (Caliper EZ Reader II, FAM labeled peptide substrate); conditions: IC50 TYK2 ([…]) (1 mM ATP), TYK2 […], 1 mM ATP
T1 construct: purchased Carna Biosciences
T1 sequence (P29597 whole entry): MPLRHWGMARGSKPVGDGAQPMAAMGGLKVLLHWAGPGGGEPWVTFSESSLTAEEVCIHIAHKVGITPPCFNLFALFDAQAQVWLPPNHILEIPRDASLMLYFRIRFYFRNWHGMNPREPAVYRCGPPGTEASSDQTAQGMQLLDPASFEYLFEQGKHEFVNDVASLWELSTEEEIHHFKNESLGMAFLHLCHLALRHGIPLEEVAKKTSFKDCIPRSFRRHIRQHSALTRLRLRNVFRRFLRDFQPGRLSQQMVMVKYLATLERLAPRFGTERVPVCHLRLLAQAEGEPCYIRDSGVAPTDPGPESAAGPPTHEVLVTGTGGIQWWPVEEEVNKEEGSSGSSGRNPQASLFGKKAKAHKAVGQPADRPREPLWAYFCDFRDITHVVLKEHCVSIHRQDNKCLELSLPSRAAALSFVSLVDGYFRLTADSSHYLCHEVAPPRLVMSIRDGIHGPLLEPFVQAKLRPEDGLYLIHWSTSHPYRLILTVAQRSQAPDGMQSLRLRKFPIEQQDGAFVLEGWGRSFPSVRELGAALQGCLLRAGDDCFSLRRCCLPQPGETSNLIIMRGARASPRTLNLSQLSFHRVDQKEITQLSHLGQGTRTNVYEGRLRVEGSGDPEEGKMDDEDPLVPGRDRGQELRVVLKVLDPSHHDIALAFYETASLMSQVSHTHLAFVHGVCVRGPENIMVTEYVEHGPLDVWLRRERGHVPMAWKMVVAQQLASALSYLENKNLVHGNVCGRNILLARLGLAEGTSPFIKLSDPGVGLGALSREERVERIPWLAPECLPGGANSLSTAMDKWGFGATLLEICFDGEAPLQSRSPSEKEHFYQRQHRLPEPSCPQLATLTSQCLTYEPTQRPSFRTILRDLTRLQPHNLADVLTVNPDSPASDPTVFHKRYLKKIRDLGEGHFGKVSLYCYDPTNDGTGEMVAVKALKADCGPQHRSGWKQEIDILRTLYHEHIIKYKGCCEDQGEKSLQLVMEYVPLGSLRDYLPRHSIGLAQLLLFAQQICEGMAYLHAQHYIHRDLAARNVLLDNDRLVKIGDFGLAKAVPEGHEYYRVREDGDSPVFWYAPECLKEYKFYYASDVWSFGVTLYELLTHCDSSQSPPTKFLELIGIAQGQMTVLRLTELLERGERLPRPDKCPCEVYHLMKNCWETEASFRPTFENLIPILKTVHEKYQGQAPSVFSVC
How it was run: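 Assay run at ~10% substrate conversion in 50 mM HEPES pH buffer with Brij35, MgCl2 and DTT; compounds tested up to 5 μM in 3-fold dilutions at 1% DMSO. JAK1 reacted 120 min, JAK2 20 min, JAK2V617F 30 min, TYK2 10 min before an EDTA stop.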

JAK2 = target: T2, JAK2 (Homo sapiens, UniProt O60674); test: JAK2 microfluidic kinase assay (Caliper EZ Reader II, FAM labeled peptide substrate)
T2 construct: purchased Carna Biosciences
T2 sequence (O60674 whole entry): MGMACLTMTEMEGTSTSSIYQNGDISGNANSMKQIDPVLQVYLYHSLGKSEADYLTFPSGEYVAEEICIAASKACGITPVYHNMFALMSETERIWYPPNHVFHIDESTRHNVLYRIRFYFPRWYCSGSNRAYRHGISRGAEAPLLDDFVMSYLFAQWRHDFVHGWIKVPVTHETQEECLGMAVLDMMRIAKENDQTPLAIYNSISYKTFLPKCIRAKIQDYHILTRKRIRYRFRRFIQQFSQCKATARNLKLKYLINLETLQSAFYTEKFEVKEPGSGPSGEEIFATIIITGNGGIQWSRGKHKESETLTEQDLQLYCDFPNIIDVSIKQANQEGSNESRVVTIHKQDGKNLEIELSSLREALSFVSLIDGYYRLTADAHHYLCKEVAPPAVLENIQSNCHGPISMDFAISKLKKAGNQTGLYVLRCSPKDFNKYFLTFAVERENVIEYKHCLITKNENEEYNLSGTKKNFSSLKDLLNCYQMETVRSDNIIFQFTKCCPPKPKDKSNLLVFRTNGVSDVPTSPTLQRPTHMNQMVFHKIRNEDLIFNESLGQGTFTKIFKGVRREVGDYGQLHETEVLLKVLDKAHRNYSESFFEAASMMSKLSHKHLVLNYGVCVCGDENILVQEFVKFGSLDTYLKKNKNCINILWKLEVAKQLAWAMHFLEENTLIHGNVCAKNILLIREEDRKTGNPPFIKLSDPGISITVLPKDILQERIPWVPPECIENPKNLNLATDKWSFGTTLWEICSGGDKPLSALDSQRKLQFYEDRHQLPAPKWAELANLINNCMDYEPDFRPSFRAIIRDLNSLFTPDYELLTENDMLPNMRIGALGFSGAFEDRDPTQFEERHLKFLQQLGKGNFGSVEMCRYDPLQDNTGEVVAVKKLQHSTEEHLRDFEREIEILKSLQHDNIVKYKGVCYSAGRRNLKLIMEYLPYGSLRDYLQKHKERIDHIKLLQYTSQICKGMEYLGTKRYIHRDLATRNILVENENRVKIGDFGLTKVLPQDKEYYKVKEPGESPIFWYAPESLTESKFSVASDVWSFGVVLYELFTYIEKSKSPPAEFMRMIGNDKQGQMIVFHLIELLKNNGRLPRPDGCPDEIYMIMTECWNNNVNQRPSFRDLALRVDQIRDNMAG
How it was run: (§1)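 Microfluidic mobility-shift kinase assay in 50 mM HEPES, 0.01% Brij35, 10 mM MgCl2, 2 mM DTT. IC50 values come from percent-inhibition curves normalised to uninhibited and enzyme-free controls.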

JAK1 = target: T3, JAK1 (Homo sapiens, UniProt P23458); test: JAK1 microfluidic kinase assay (Caliper EZ Reader II, FAM labeled peptide substrate)
T3 construct: purchased Carna Biosciences
T3 sequence (P23458 whole entry): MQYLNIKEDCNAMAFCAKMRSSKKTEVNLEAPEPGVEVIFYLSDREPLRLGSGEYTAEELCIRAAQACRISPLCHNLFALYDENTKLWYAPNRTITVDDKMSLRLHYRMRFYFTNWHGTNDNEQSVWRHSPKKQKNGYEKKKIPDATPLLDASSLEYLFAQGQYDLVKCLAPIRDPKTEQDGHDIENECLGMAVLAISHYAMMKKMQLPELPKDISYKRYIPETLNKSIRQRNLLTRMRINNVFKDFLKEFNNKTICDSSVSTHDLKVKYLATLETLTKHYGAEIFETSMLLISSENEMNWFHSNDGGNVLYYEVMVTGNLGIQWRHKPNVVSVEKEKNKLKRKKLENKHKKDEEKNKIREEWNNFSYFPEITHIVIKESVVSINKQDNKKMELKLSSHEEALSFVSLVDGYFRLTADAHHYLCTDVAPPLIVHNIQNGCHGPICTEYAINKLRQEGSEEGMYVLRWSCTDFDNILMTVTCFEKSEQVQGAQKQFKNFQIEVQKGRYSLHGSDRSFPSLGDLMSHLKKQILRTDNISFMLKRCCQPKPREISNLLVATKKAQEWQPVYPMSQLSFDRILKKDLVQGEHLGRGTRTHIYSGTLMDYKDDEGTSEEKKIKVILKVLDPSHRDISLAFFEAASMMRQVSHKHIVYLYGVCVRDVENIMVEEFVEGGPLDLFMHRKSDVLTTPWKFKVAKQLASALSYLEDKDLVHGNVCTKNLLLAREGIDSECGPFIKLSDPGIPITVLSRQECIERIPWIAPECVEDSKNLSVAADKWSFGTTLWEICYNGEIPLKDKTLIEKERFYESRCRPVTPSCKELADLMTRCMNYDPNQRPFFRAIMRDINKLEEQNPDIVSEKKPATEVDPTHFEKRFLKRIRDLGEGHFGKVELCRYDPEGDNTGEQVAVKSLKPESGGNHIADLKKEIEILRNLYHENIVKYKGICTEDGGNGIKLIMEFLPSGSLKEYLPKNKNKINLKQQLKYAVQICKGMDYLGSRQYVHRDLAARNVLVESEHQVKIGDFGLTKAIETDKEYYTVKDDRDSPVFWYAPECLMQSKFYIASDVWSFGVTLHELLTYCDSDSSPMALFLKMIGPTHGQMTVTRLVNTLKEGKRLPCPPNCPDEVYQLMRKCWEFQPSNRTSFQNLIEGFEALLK
How it was run: as §1

FLT3D835Y = target: T4, FLT3D835Y (Homo sapiens, UniProt P36888, D835Y); test: FLT3D835Y microfluidic kinase assay
T4 construct: purchased Carna Biosciences
T4 sequence (P36888 27-993 D835Y): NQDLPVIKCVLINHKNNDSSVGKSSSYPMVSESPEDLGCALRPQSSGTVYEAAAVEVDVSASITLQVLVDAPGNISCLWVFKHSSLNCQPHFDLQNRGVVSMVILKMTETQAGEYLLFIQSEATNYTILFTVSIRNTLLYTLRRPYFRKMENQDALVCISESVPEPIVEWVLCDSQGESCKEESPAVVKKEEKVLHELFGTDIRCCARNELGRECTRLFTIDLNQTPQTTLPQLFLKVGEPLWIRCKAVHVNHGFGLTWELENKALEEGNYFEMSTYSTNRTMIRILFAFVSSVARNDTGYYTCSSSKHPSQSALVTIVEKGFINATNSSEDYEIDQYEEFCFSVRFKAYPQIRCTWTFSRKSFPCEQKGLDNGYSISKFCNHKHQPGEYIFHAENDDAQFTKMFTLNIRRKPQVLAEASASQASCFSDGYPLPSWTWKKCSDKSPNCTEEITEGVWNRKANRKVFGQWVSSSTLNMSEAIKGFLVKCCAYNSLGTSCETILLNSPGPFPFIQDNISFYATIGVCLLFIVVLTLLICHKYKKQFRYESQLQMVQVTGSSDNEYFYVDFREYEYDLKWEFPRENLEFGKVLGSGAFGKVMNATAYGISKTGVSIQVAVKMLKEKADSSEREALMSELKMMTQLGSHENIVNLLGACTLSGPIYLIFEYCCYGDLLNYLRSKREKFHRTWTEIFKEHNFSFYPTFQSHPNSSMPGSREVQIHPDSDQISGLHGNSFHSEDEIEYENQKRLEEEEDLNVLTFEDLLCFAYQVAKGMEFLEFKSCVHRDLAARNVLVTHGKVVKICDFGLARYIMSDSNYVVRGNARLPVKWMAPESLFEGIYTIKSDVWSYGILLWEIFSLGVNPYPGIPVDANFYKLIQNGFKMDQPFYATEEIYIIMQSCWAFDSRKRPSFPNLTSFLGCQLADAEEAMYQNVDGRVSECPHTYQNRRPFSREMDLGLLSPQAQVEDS
Experimental: Compounds were tested against FLT3, FLT3ITD and FLT3D835Y.
Assay Formats: FLT3 activity was determined in the reaction buffer 50 mM HEPES, 10 mM MgCl2 and 2 mM DTT by a microfluidic assay. The phosphorylation of a FAM labeled peptide substrate was monitored in the Caliper EZ Reader II (Perkin Elmer). The assay condition for each batch of enzyme (Carna Biosciences) was optimized to obtain 10% conversion rate of peptide substrate.
The test compounds were dissolved in DMSO to a stock concentration of 10 mM. 3-fold serially diluted compounds with top concentration of 5 μM were pre-incubated with FLT3, FLT3ITD or FLT3D835Y for 10 min at ambient temperature. The final DMSO concentration of assay mixture was 1%. […] The reaction was stopped by adding 50 mM EITA. The reaction time for FLT3, FLT3ITD and FLT3D8335Y was 30 min, 40 min and 40 min, respectively.
And the well without compound but with equivalent DMSO was defined as no inhibition. The percent inhibition was calculated by the following formula. % Inhibition=(Conversionmax−Conversionsample)/(Conversionmax−Conversionmin)*100 • Conversionmax means the conversion rate in the positive well without addition of compound • Conversionmin means the conversion rate in the well without addition of enzyme • Conversionsample means the conversion rate of test compounds
The dose-response (percent inhibition) curve was plotted and IC50 values were determined by GraphPad software.

[1] = IC50 JAK2 ([…]) (1 mM ATP), 1 mM ATP
[2] = IC50 JAK1 (5 nM) (1 m MATP), JAK1 5 nM, 1 mM ATP
[3] = IC50 JAK2 ([…]) (Km ATP), Km ATP
[4] = IC50 JAK1 (10 nM) (Km ATP), JAK1 10 nM, Km ATP

| SMILES | IC50 (TYK2) [nM] | IC50 (JAK2; [1]) [nM] | IC50 (JAK1; [2]) [nM] | IC50 (FLT3D835Y) [nM] | IC50 (JAK2; [3]) [nM] | IC50 (JAK1; [4]) [nM] | IC50 (JAK1; read-out: IC50 JAK1 (5 nM) (1 m MATP), JAK1 5 nM, 1 mM ATP) [nM] |
| --- | --- | --- | --- | --- | --- | --- | --- |
| C[C@@H](C#N)NC(=O)c1ccc(-c2nc(Nc3cnn(C4CCNCC4)c3)ncc2Cl)cc1 [Example 165, (S)-4-(5-chloro-2-((1-(piperidin-4-yl)-1H-pyrazol-4-yl)amino)pyrimidin-4-yl)-N-(1-cyanoethyl)benzamide] | 65 | 1.16 | 5.94 | – | – | – | – |
| CC[C@@H](C#N)NC(=O)c1ccc(-c2nc(Nc3cnn(C4CCN(C)CC4)c3)ncc2C)cc1 [Example 184, (S)—N-(1-Cyanopropyl)-4-(5-methyl-2-((1-(1-methylpiperidin-4-yl)-1H-pyrazol-4-yl)amino)pyrimidin-4-yl)benzamide] | 1.34 | 0.37 | 0.61 | – | – | – | – |
| C[C@@H](C#N)NC(=O)c1ccc(-c2nc(Nc3cnn(C)c3)ncc2Cl)cc1 [Example 125, (S)-4-(5-chloro-2-((1-methyl-1H-pyrazol-4-yl)amino)pyrimidin-4-yl)-N-(1-cyanoethyl)benzamide] | 146 | 41.2 | 18.9 | 43.8 | 1.48 | – | – |
| Cc1cnc(Nc2cnn(CC#N)c2)nc1-c1ccc(C(=O)NCC#N)cc1 [Example 4, N-(Cyanomethyl)-4-(2-((1-(cyanomethyl)-1H-pyrazol-4-yl)amino)-5-methylpyrimidin-4-yl)benzamide] | 62.9 | 43 | 8.75 | – | 2.04 | 1.73 | – |
| Cc1cnc(Nc2cnn(C)c2)nc1-c1ccc(C(=O)NC(C)C)cc1 [Example 223, N-isopropyl-4-(5-methyl-2-((1-methyl-1H-pyrazol-4-yl)amino)pyrimidin-4-yl)benzamide] | > 5000 | 1450 | 3940 | 2830 | – | – | – |
| CC[C@@H](C#N)NC(=O)c1ccc(-c2nc(Nc3cnn(C4CCNCC4)c3)ncc2Cl)cc1 [Example 183, (S)-4-(5-chloro-2-((1-(piperidin-4-yl)-1H-pyrazol-4-yl)amino)pyrimidin-4-yl)-N-(1-cyanopropyl)benzamide] | 2.29 | 0.42 | 1.95 | – | – | – | – |
| CC[C@@H](C#N)NC(=O)c1ccc(-c2nc(Nc3cnn(C4CC4)c3)ncc2Cl)cc1 [Example 61, (S)-4-(5-chloro-2-((1-cyclopropyl-1H-pyrazol-4-yl)amino)pyrimidin-4-yl)-N-(1-cyanopropyl)benzamide] | 52.8 | 4.73 | 5.81 | 11.5 | – | – | – |
| Cc1cnc(Nc2cnn(C3CC(C)(C)OC(C)(C)C3)c2)nc1-c1ccc(C(=O)NCC#N)cc1 [Example 113, N-(cyanomethyl)-4-(5-methyl-2-((1-(2,2,6,6-tetramethyltetrahydro-2H-pyran-4-yl)-1H-pyrazol-4-yl)amino)pyrimidin-4-yl)benzamide] | 1.66 | < 0.25 | – | – | – | – | 10.4 |
| C[C@@H](C#N)NC(=O)c1ccc(-c2nc(Nc3cnn(C4CC4)c3)ncc2Cl)cc1 [Example 111, (S)-4-(5-Chloro-2-((1-cyclopropyl-1H-pyrazol-4-yl)amino)pyrimidin-4-yl)-N-(1-cyanoethyl)benzamide] | 43.3 | 2.79 | 8.64 | 11.9 | – | – | – |
| CNC(=O)c1ccc(-c2nc(Nc3cnn(C)c3)ncc2C)cc1 [Example 10, N-Methyl-4-(5-methyl-2-((1-methyl-1H-pyrazol-4-yl)amino)pyrimidin-4-yl)benzamide] | > 5000 | > 5000 | > 5000 | 2040 | 30 | – | – |

Other lines, results leading:

| IC50 (TYK2) [nM] | IC50 (JAK2; [1]) [nM] | IC50 (JAK1; [2]) [nM] | IC50 (FLT3D835Y) [nM] | IC50 (JAK2; [3]) [nM] | IC50 (JAK1; [4]) [nM] | IC50 (JAK1; read-out: IC50 JAK1 (5 nM) (1 m MATP), JAK1 5 nM, 1 mM ATP) [nM] | SMILES |
| --- | --- | --- | --- | --- | --- | --- | --- |
| 58.9 | 4.48 | 7.29 | – | – | – | – | N#CCNC(=O)c1ccc(-c2nc(Nc3cnn(C4CC4)c3)ncc2Cl)cc1 [Example 95, 4-(5-Chloro-2-((1-cyclopropyl-1H-pyrazol-4-yl)amino)pyrimidin-4-yl)-N-(cyanomethyl)benzamide] |
| 29 | 0.57 | 11.2 | – | – | – | – | C[C@@H](C#N)NC(=O)c1ccc(-c2nc(Nc3cnn(C4CCN(C)CC4)c3)ncc2Cl)cc1 [Example 43, (S)-4-(5-Chloro-2-((1-(1-methylpiperidin-4-yl)-1H-pyrazol-4-yl)amino)pyrimidin-4-yl)-N-(1-cyanoethyl)benzamide] |
| 98.4 | 24.4 | 11.8 | 15.5 | 0.7 | – | – | Cn1cc(Nc2ncc(Cl)c(-c3ccc(C(=O)NCC#N)cc3)n2)cn1 [Example 34, 4-(5-Chloro-2-((1-methyl-1H-pyrazol-4-yl)amino)pyrimidin-4-yl)-N-(cyanomethyl)benzamide] |
| 5.15 | < 0.25 | 8.45 | – | – | – | – | Cc1cnc(Nc2cnn(C3CCN(C(=O)CO)CC3)c2)nc1-c1ccc(C(=O)N[C@@H](C)C#N)cc1 [Example 119, (S)—N-(1-cyanoethyl)-4-(2-((1-(1-(2-hydroxyacetyl)piperidin-4-yl)-1H-pyrazol-4-yl)amino)-5-methylpyrimidin-4-yl)benzamide] |
| > 5000 | 4520 | > 5000 | 4320 | 149 | 1890 | – | CCNC(=O)c1ccc(-c2nc(Nc3cnn(C)c3)ncc2C)cc1 [Example 222, N-ethyl-4-(5-methyl-2-((1-methyl-1H-pyrazol-4-yl)amino)pyrimidin-4-yl)benzamide] |
